Tests used:
[1] = Glass formation of the DNP preparation upon rapid freezing in liquid nitrogen; assay type: physicochemical
Description: Butyric acid (11.7 mg, 0.13 mmol) was placed into an Eppendorf tube and mixed with 9.0 mg of a glycerol solution containing 39 mM of Radical 1. This preparation was 7 M with respect to butyric acid.
Butyric anhydride (40 μl, 0.24 mmol) was added to an Eppendorf tube and mixed with 1 mg of Radical 3 in a total concentration of 15 mM. This preparation was 6.5 M with respect to butyric anhydride (which, upon hydrolysis provides a 13 M concentration in butyric acid molecules).
Butyric acetic anhydride (36 μl, 0.28 mmol) was added to an Eppendorf tube and mixed with 0.85 mg of acid form of Radical 3 in a total concentration of 15 mM. This preparation was 7.5 M with respect to butyric acetic acid.
Li-acetoacetate (22.4 mg, 0.21 mmol) was added to an Eppendorf tube and mixed with 28 μl of a DMSO preparation (25 mM Radical 3 and 0.8 mM 3-Gd). This preparation was 4 M with respect to Li-acetoacetate.
To an Eppendorf tube was added diketene (9.6 mg, 0.11 mmol) and mixed with 4.7 mg of a DMSO preparation of Radical 3 (45 mM) and 3-Gd (1.5 mM). This preparation was 8.5 M with respect to diketene.
Ethyl acetoacetate (45 μl, 0.34 mmol) was added to an Eppendorf tube and mixed with acid form of Radical 2 (0.7 mg, 0.65 μmol) in a total concentration of 15 mM. This preparation was 8 M with respect to ethyl acetoacetate.
Cis-aconitic acid (18.6 mg, 0.11 mmol) was added to an Eppendorf tube and mixed with a 32.5 μl DMSO preparation (25 mM Radical 3 and 0.8 mM 3-Gd). This preparation was 2.5 M with respect to cis-aconitic acid.
Cis-aconitic anhydride (188 mg, 1.2 mmol) was added to an Eppendorf tube and mixed with 2.85 mg (2 μmol) of Radical 1 and 0.98 mg of a 83 μmol/g solution of 3-Gd. This preparation was 9 M with respect to cis-aconitic anhydride.
Succinic acid (42.1 mg, 0.35 mmol) was added to an Eppendorf tube and mixed and mixed with 92 mg of a DMSO preparation (20 mM Radical 3 and 0.8 mM 3-Gd). This preparation was 4 M with respect to succinic acid.
Succinic anhydride (21.5 mg, 0.21 mmol) was added to an Eppendorf tube and mixed with 21.8 mg of a DMSO solution of Radical 3 (30 mM) and of 3-Gd (1 mM). This preparation was 6 M with respect to succinic anhydride.
Succinic-(1)-ethyl ester (111 mg, 0.75 mmol) was added to an Eppendorf tube and mixed with the carboxylic acid form of Radical 2 (2.4 mg, 1.5 μmol) and 3-Gd (3.4 μl of a 14.5 mM solution in water). This preparation was 6 M with respect to succinic-(1)-ethyl ester.
(§1) L-Glutamine (50.9 mg, 0.35 mmol) was added to an Eppendorf tube and dissolved in 29 μl of 12 M NaOH and mixed with 1.7 mg of radical 1 and 3-Gd (2.3 μl of a 14.5 mM water stock solution). This preparation was 4 M with respect to L-glutamine.

[2] = T1 relaxation time in solution at 14.1 T; assay type: physicochemical; details: for High field liquid state T1: 14.1 T magnet, phosphate buffer, pH 7.1-7.2; for T1 of the hydrolyzed product: 14.1 T and 37° C.
Description: The ester was only partly hydrolyzed.
The T1 of the hydrolyzed product, succinate is 33 s (14.1 T and 37° C.).
The sample was dissolved in 5 ml phosphate buffer (100 mM, pH 7) with added one equivalent HCl. The pH is 7.1 after dissolution.
The pH is 7.2 after dissolution.

[3] = Degradation / isomerisation of the substrate in DNP preparation and dissolution (NMR)
Description: The entire composition from example 2a was transferred from the Eppendorf tube to a sample cup and the sample cup was inserted into a DNP polariser. The composition was hyperpolarised under DNP conditions at 1.2 K in a 3.35 T magnetic field under irradiation with microwave (93.915 GHz). The sample was hyperpolarized for 75 min.
The sample was dissolved in 5 ml phosphate buffer pH 7.3 (40 mM+EDTA).
The solution was collected directly into a 10 mm NMR tube and transferred to a 14.1 T magnet where a 90 degree 1D 13C-NMR spectrum was recorded.
(§2) The sample was dissolved in 5 ml water with added NaOH (125 μl of 12 M). The solution was collected directly into a 10 mm NMR tube and transferred to a 14.1 T magnet (pH 13) where a time series of 64 five degree 1D 13C-NMR spectra were recorded with a total delay between the pulses of 3 s.
(§3) The sample was dissolved in 5 ml water with added NaOH (200 μl of 12 M). The solution was collected directly into a 10 mm NMR tube and transferred to a 14.1 T magnet (pH 12.8) where a time series of 5 degree 1D 13C-NMR spectra were recorded with a total delay between the pulses of 3 s.
The sample was dissolved in 5 ml 40 mM phosphate buffer pH 7.3+100 mg/l EDTA, thus resulting in an ester concentration of 20 mM. 1 ml of the ester solution was injected through a transfer line into a 10 mm NMR tube placed at 14.1 T and 37° C. The 10 mm NMR tube contained a 500 μl solution of approximately 270 U of a carboxylic-ester hydrolase from porcine liver. A time series of 10 degree 1D 13C-NMR spectra were recorded with a total delay between the pulses of 3 s.
The sample was dissolved in 5 ml phosphate buffer (40 mM, pH 7.3) with added 30 μl 12 M NaOH. […] The solution was collected directly into a 10 mm NMR tube and transferred to a 14.1 T magnet where a time series of 5 degree 1D 13C-NMR spectra were recorded with a total delay between the pulses of 3 s.
(§4) The sample was dissolved in 6 ml water with added NaOH (190 μl of 12 M). The solution was collected directly into a 10 mm NMR tube and transferred to a 14.1 T magnet (pH 12.8) where a time series of 64 five degree 1D 13C-NMR spectra were recorded with a total delay between the pulses of 3 s.
as §1
N-acetyl-L-glutamine (57.2 mg, 0.3 mmol) was added to an Eppendorf tube and dissolved in 25.3 μl of 12 M NaOH and mixed with 1.9 mg of radical 1 and 3-Gd (2.3 μl of a 14.5 mM water stock solution).

[4] = Hydrolysis of the DNP hyperpolarized precursor on dissolution with strong base, followed by 13C-NMR time series; assay type: physicochemical
Description: The composition from example 1b (25 mg, 0.16 mmol) was transferred from the Eppendorf tube to a sample cup and the sample cup was inserted into a DNP polariser. The composition was hyperpolarised under DNP conditions at 1.2 K in a 3.35 T magnetic field under irradiation with microwave (93.915 GHz). The sample was hyperpolarized for 75 min.
The sample was dissolved in 4 ml water with added NaOH (50 μl of 12M solution). The pH of the dissolved sample was 12. The solution was collected directly into a 10 mm NMR tube and transferred to a 14.1 T magnet where a time series of 5 degree 1D 13C-NMR spectra were recorded with a total delay between the pulses of 1 s.
The composition from example is (33 mg, 0.25 mmol) was transferred from the Eppendorf tube to a sample cup and the sample cup was inserted into a DNP polariser. The composition was hyperpolarised under DNP conditions at 1.2 K in a 3.35 T magnetic field under irradiation with microwave (93.915 GHz). The sample was hyperpolarized for 90 min.
The sample was dissolved in 5 ml water with added NaOH (125 μl of 12M). The solution was collected directly into a 10 mm NMR tube and transferred to a 14.1 […]) T magnet where a time series of 5 degree 1D 13C-NMR spectra were recorded with a total delay between the pulses of 1 s.
The entire composition from example 2b was transferred from the Eppendorf tube to a sample cup and the sample cup was inserted into a DNP polariser. The composition was hyperpolarised under DNP conditions at 1.2 K in a 3.35 T magnetic field under irradiation with microwave (93.915 GHz). The sample was hyperpolarized for 3 hours.
as §2
The composition from example is (20.5 mg, 0.16 mmol) was transferred from the Eppendorf tube to a sample cup and the sample cup was inserted into a DNP polariser. The composition was hyperpolarised under DNP conditions at 1.2 K in a 3.35 T magnetic field under irradiation with microwave (93.915 GHz). The sample was hyperpolarized for 2 hours.
as §3
The composition from example 2b was melted on a water-bath and stirred with a magnetic stirrer. 45 mg of this preparation (0.29 mmol) was transferred from the Eppendorf tube to a sample cup and the sample cup was inserted into a DNP polariser. The composition was hyperpolarised under DNP conditions at 1.2 K in a 3.35 T magnetic field under irradiation with microwave (93.915 GHz). The sample was hyperpolarized for 90 min.
as §4

[5] = dissolved in 12 M NaOH with radical 1
[6] = mixed with DMSO preparation of Radical 3
[7] = with trityl radical, without addition of glass-forming agents
[8] = after 20 s, water with added NaOH, pH 12.9-13
[9] = after 10 s, water with added NaOH, pH 12-13
[10] = after 15 s, strong base (NaOH or NaOD), pH 11-12.2

Question: For `[2H][13C]([2H])(N)C(=O)O` [2-13C-d2-Glycine, reference compound], which “Glass formation upon rapid freezing in liquid nitrogen” value [1, 5] is on record?
Answer: Its value is “forms a glass”.

Question: And the “High field liquid state T1” value [2]?
Answer: Its value is 46 s.

Question: For `CCCC(=O)OC(=O)OCC` [Butyric ethylcarbonic anhydride], which “Glass formation upon rapid freezing” value ([1]; absence of a glass forming additive, Example 1d (Prophetic)) is on record?
Answer: The value was “forms a glass”.

Question: For `NC(=O)CC[C@H](N)C(=O)O` [L-Glutamine, reference compound], which “Glass formation upon rapid freezing in liquid nitrogen” value [1, 5] is on record?
Answer: The value was “formed a glass”.

Question: And the “Amount of degradation in the DNP preparation” value ([3]; 4 M)?
Answer: Its value is 14%.

Question: Which results are given for `CC(=O)CC(=O)[O-].[Li+]` [Li-acetoacetate, reference compound]?
Answer: Glass formation upon rapid freezing in liquid nitrogen [1, 6]: formed a glass; Amount of degradation (decarboxylation) ([3]; 1H NMR on DNP sample following dissolution in phosphate buffer pH 7.3): 40%

Question: Which results are given for `CCOC(=O)CCC(=O)O` [Succinic-(1)-ethyl ester]?
Answer: Glass formation upon rapid freezing [1, 7]: formed a glass; Precursor hydrolyzed [4, 8]: at least 95%

Question: For `O=C(O)/C=C(/CC(=O)O)C(=O)O` [cis-aconitate], which “T1 of the hydrolyzed product” value [2] is on record?
Answer: The value was 24 s.

Question: Which “Glass formation upon rapid freezing in liquid nitrogen” value [1, 5] does the source give for `N[C@@H](Cc1ccccc1)C(=O)O` [L-Phenylalanine, reference compound] here?
Answer: Its value is “formed a glass”.

Question: For `O=C(O)CC(O)C(=O)O` (centres unmarked) [Malic acid, reference compound], which “Glass formation upon rapid freezing in liquid nitrogen” value [1, 6] is on record?
Answer: The value was “formed a glass”.

Question: What does the source list for `C=C1CC(=O)O1` [diketene, 4-Methylideneoxetan-2-one]?
Answer: Glass formation upon rapid freezing in liquid nitrogen [1, 6]: formed a glass; Precursor hydrolyzed [4, 9]: at least 95%

Question: With `O=C(O)CC1=CC(=O)OC1=O` [Cis-aconitic anhydride, cis-Aconitic anhydride] as the compound, how does the “Glass formation upon rapid freezing” value [1, 7] read?
Answer: Its value is “formed a glass”.

Question: And the Presence of trans-aconitate ([3]; after DNP and hydrolysis with NaOH, pH 12.8)?
Answer: Its Presence of trans-aconitate is “neglectable”.

Question: And the Precursor hydrolyzed [4, 9]?
Answer: Its Precursor hydrolyzed is “at least 95%”.

Question: Which “Glass formation upon rapid freezing” value [1, 7] does the source give for `CCOC(=O)C(O)CC(=O)O` (centres unmarked) [Malic-(1)-ethyl ester] here?
Answer: Its value is “formed a glass”.

Question: And the Precursor hydrolyzed [4, 8]?
Answer: Its Precursor hydrolyzed is “at least 95%”.

Question: For `CCOC(=O)C(=O)CCC(=O)O` [2-oxoglutaric-(1)-ethyl ester], which “Glass formation upon rapid freezing” value [1, 7] is on record?
Answer: Its value is “formed a glass”.

Question: What about the Precursor hydrolyzed [4, 10] of the same compound?
Answer: Its Precursor hydrolyzed is “at least 95%”.

Question: Which Precursor hydrolyzed ([4]; in less than 10 s, water with added NaOH, pH 11-12.6) does the source give for `CCOC(=O)C1CSC(=O)N1` (centres unmarked) [Ethyl OTZ, 2-Oxothiazolidine-4-carboxylic ethyl ester] here?
Answer: The Precursor hydrolyzed was “at least 95%”.

Question: Which “T1 of the hydrolyzed product” value [2] does the source give for `O=C(O)CCC(=O)O` [succinate] here?
Answer: The value was 33 s.

Question: For `O=C(O)CCC(=O)O` [Succinic acid, reference compound], which “Glass formation upon rapid freezing in liquid nitrogen” value [1, 6] is on record?
Answer: The value was “formed a glass”.

Question: Which “Glass formation upon rapid freezing in liquid nitrogen” value ([1]; mixed with glycerol solution of Radical 1) does the source give for `CCCC(=O)O` [Butyric acid, reference compound] here?
Answer: Its value is “formed a glass”.

Question: What about the “Glass formation upon rapid freezing” value [1, 7] of the same compound?
Answer: The value was “crystallizes”.

Question: With `CCCC(=O)OC(=O)CCC` [Butyric anhydride] as the compound, how does the “Glass formation upon rapid freezing” value [1, 7] read?
Answer: Its value is “formed a glass”.

Question: What about the Precursor hydrolyzed [4, 9] of the same compound?
Answer: The Precursor hydrolyzed was “at least 95%”.

Question: With `[2H][13C]([2H])(NC(C)=O)C(=O)O` [2-13C-d2-N-acetyl glycine] as the compound, how does the “Glass formation upon rapid freezing in liquid nitrogen” value [1, 5] read?
Answer: Its value is “formed a glass”.

Question: What about the “High field liquid state T1” value [2] of the same compound?
Answer: Its value is 40 s.

Question: Which results are given for `O=C(O)/C=C(/CC(=O)O)C(=O)O` [Cis-aconitic acid, reference compound]?
Answer: Glass formation upon rapid freezing in liquid nitrogen [1, 6]: formed a glass; Amount of trans isomer of aconitate ([3]; after DNP and dissolution in phosphate buffer with NaOH, pH 7.2): about 10%

Question: For `CCOC(=O)C(N)Cc1ccccc1` (centres unmarked) [Ethyl phenylalanine], which “Glass formation upon rapid freezing” value [1, 7] is on record?
Answer: The value was “formed a glass”.

Question: What about the Precursor hydrolyzed [4, 10] of the same compound?
Answer: The Precursor hydrolyzed was “at least 95%”.

Question: For `CCCC(=O)OC(C)=O` [Butyric acetic anhydride], which “Glass formation upon rapid freezing” value [1, 7] is on record?
Answer: Its value is “formed a glass”.

Question: And the Precursor hydrolyzed [4, 9]?
Answer: Its Precursor hydrolyzed is “at least 95%”.

Question: What does the source list for `O=C1CCC(=O)O1` [Succinic anhydride]?
Answer: Glass formation upon rapid freezing in liquid nitrogen [1, 6]: formed a glass; Precursor hydrolyzed [4, 9]: at least 95%
